The nature of assay [1]: Comparison with 1,4-butanediol-β-aminocrotonate and methyl-β-aminocrotonate, rigid co-polymer, 185° C. Conditions: 0.5 part. How it is done: (a) Comparison with 1,4-butanediol-β-aminocrotonate and with methyl-β-aminocrotonate.
The following rigid co-polymer was prepared:
The sheets were heated in a ventilated oven at 185° C. and the following results were obtained: […]

Assay [2] in a line: Photostabilizing power, PVC plates exposed to the sun, GARDNER scale. The method, then: (§1) The photostabilizing power of the compounds of the invention was studied by exposing to the sun polyvinyl chloride plates which had been stabilized either by a dihydropyridine of the invention or by 2-phenyl-indole, or again by 2-(3'-methoxy-4'-hydroxy)-indole. This last product is an extremely valuable thermostabilizer for thermoplastic resins and is described in British Pat. No. 1,489,685.
(§2) The resin given hereunder was prepared by mixing on cylinders at 160° C.:
(§3) The plates of stabilized polyvinyl chloride, together with a plate which had not been stabilized, were stood in the sun under the same conditions and at the same time. Their colour was measured after 6 hours and 12 hours of exposure.
(§4) The coloration of the plates was determined according to two methods:
On the plates themselves, following the GARDNER scale, as in the section on thermostability,
The sign + means that the coloration lies between the lower unit and the upper half-unit. Thus, 3+ means that the coloration lies between 3 and 3.5. Similarly, the sign - means that the coloration lies between the lower half-unit and the upper unit.

The nature of assay [3]: Photostabilizing power, tetrahydrofuran solution of plates exposed to the sun, French Pharmacopeia. The method, then:
as §1, §2, §3, §4
On a solution of these plates in tetrahydrofuran, the coloration of th solution being measured according to the French Pharmacopeia (IXth edition, II-338).

Assay [4] in a line: Static thermostability (GARDNER method), rigid PVC sheets, 210° C., 0.3 part stabilizer. Conditions: for coloration of the resins, in words: 0 to 3 minutes. How it is done:
(§5) This study was carried out according to the GARDNER method, described in British Pat. No. 1,489,685.
(§6) The reference substance was 2-phenyl-indole, a well-known and widely used stabilizer.
(§7) The stabilizer (dihydropyridine or 2-phenyl-indole) and the other usual ingredients were mixed with powdered vinyl resins and the mixtures were calendered at a temperature of 160° C. to give rigid sheets.
(§8) The sheets were then heated in a thermostated oven (185° C. or 210° C.) for different intervals of time until incipient carbonization.
(§9) The coloration of the samples was compared to a standard scale of coloration, known as the GARDNER scale and was expressed in terms of the reference figures of the GARDNER scale.
(§10) This study was carried out with the following resin:
(§11) Polyvinyl chloride resin
(§12) SL 2016 is a solution of zinc-2-ethyl-hexanoate in a mixture of hydrocarbons boiling between 158° C. and 184° C.
The first trial was carried out at 210° C. with a resin containing 0.3 part by weight of stabilizer, the sheets being removed from the oven every three minutes over a period of 21 minutes.

Assay [5] is described as follows: Static thermostability (GARDNER method), rigid PVC sheets, 185° C., 0.3 part stabilizer. How it is done: as §5, §6, §7, §8, §9, §10, §11, §12
A second trial was performed at a temperature of 185° C., with a resin containing 0.3 part of stabilizer, the samples being removed from the oven every 6 minutes over a period of 24 minutes, then every 3 minutes until the 42nd minute (or until carbonization).

The nature of assay [6]: Static thermostability (GARDNER method), rigid PVC sheets, 185° C., equimolecular quantities. The settings on record: 1.55×10^-3 mol. The method, then: as §5, §6, §7, §8, §9, §10, §11, §12
Finally, a trail was performed at 185° C., with resins containing equimolecular quantities of the dihydropyridines or of 2-phenyl-indole, namely 1.55×10^-3 mol. In this case too, the samples were removed from the oven every 6 minutes over a period of 24 minutes and then every 3 minutes until the 42nd minute (or until carbonization).

A short description of assay [7]: Comparison with stabilizer G1, rigid co-polymer, 0.5 part, 185° C. The text has this:
(b) Comparison with stabilizer G1
Stabilizer G1 is a mixture of 1,4-butanediol-β-aminocrotonate and of β-aminocrotonate of alcohols containing from 16 to 18 carbon atoms.

Assay [8] is described as follows: Photostabilizing power, sheets exposed to the sun, co-polymer (a). How it is done:
The sheets were exposed to the sun and their colorations were also determined according to the GARDNER method.

Molecules are shown by their SMILES.

In the case of `CC(N)=CC(=O)OCCCCOC(=O)C=C(C)N` [1,4-butanediol-β-aminocrotonate, reference compound], the “coloration, GARDNER scale” value is 1 in assay [1] (0 min); 1 in assay [1] (2 min); 4 in assay [1] (4 min); 10 in assay [1] (6 min); 13 in assay [1] (8 min); 15 in assay [1] (10 min). The “coloration, GARDNER scale” value in assay [1] (12 min) is reported as 18.

On to `COc1cc(-c2cc3ccccc3[nH]2)ccc1O` [2-(3'-Methoxy-4'-hydroxy-phenyl)-indole, reference compound], for which the “Coloration of the plates GARDNER” value in assay [2] (exposure to sun 0) is 1; in assay [2] (exposure to sun 6h), 4; in assay [2] (exposure to sun 12h), 8. In addition, the “Coloration of the plates FRENCH PHARMACOPEIA” value in assay [3] (exposure to sun 6h) is “B4 to JB4”; in assay [3] (exposure to sun 12h), “B3 to JB3”.

`COc1ccc(COC(=O)C2=C(C)NC(C)=C(C(=O)OCc3ccc(OC)cc3)C2)cc1` [Compound 4]: the “coloration, GARDNER scale” value is listed as 1 in assay [4] (0 min); 1 in assay [4] (3 min); 2 in assay [4] (6 min); 4 in assay [4] (9 min); 6 in assay [4] (12 min); 11 in assay [4] (15 min). Also, the “coloration, GARDNER scale” value is reported as “Burnt” in assay [4] (18 min); 1 in assay [5] (0 min); 1 in assay [5] (6 min); 2 in assay [5] (12 min); 8 in assay [5] (18 min); 13 in assay [5] (24 min). Further, the “coloration, GARDNER scale” value is 14 in assay [5] (27 min); 17 in assay [5] (30 min); 18 in assay [5] (33 min); “Burnt” in assay [5] (36 min); 1 in assay [6] (0 min); 1 in assay [6] (6 min). Besides, the “coloration, GARDNER scale” value came out at 1 in assay [6] (12 min); 4 in assay [6] (18 min); 6 in assay [6] (24 min); 8 in assay [6] (27 min); 11 in assay [6] (30 min); 15 in assay [6] (33 min). The “coloration, GARDNER scale” value in assay [6] (36 min) is listed as “Burnt”. The “coloration of the resins, in words” value in assay [4] is listed as “considerably less”.

As to `CC1=C(C(=O)OCc2ccccc2Cl)CC(C(=O)OCc2ccccc2Cl)=C(C)N1` [Compound 5, 2,6-Dimethyl-3,5-di-(2'-carbochloro-benzyloxy)-1,4-dihydropyridine], the “coloration, GARDNER scale” value came out at 1 in assay [4] (0 min); 1 in assay [4] (3 min); 2 in assay [4] (6 min); 3 in assay [4] (9 min); 6 in assay [4] (12 min); 10.5 in assay [4] (15 min). Besides, the “coloration, GARDNER scale” value in assay [4] (18 min) is “Burnt”; in assay [5] (0 min) it was 1; in assay [5] (6 min) it was 1; in assay [5] (12 min), 2; in assay [5] (18 min) it was 9; in assay [5] (24 min), 11. For the same molecule, the “coloration, GARDNER scale” value in assay [5] (27 min) is recorded as 11; in assay [5] (30 min), 13; in assay [5] (33 min) it was 14; in assay [5] (36 min), 14; in assay [5] (39 min) it was “Burnt”; in assay [6] (0 min) it was 1. Also, the “coloration, GARDNER scale” value in assay [6] (6 min) is 1; in assay [6] (12 min) it was 1; in assay [6] (18 min), 5; in assay [6] (24 min) it was 10; in assay [6] (27 min) it was 11; in assay [6] (30 min), 13. In addition, the “coloration, GARDNER scale” value is 14 in assay [6] (33 min), 15 in assay [6] (36 min) and “Burnt” in assay [6] (39 min). In addition, the “coloration of the resins, in words” value in assay [4] is listed as “considerably less”.

With `CC1=C(C(=O)OCc2ccccc2C)CC(C(=O)OCc2ccccc2C)=C(C)N1` [Compound 6, 2,6-Dimethyl-3,5-di-(2'-carbomethyl-benzyloxy)-1,4-dihydropyridine], the “coloration, GARDNER scale” value in assay [4] (0 min) turned out to be 1; in assay [4] (3 min), 1; in assay [4] (6 min), 1.5; in assay [4] (9 min) it was 3; in assay [4] (12 min) it was 4; in assay [4] (15 min) it was 7. Moreover, the “coloration, GARDNER scale” value is given as “Burnt” in assay [4] (18 min); 1 in assay [5] (0 min); 1 in assay [5] (6 min); 2 in assay [5] (12 min); 9 in assay [5] (18 min); 11 in assay [5] (24 min). In addition, the “coloration, GARDNER scale” value is given as 11 in assay [5] (27 min); 13 in assay [5] (30 min); 14 in assay [5] (33 min); “Burnt” in assay [5] (36 min); 1 in assay [6] (0 min); 1 in assay [6] (6 min). Further, the “coloration, GARDNER scale” value in assay [6] (12 min) was 2; in assay [6] (18 min), 4; in assay [6] (24 min), 10; in assay [6] (27 min), 13; in assay [6] (30 min) it was “B”.

Turning to `CCCCOCCOC(=O)C1=C(C)NC(C)=C(C(=O)OCCOCCCC)C1` [Compound 27], the “coloration, GARDNER scale” value is 1 in assay [4] (0 min); 1 in assay [4] (3 min); 1 in assay [4] (6 min); 2 in assay [4] (9 min); 5 in assay [4] (12 min); 14 in assay [4] (15 min). Besides, the “coloration, GARDNER scale” value in assay [4] (18 min) is reported as “Burnt”; in assay [7] (0 min), 1; in assay [7] (2 min), 1; in assay [7] (4 min) it was 4; in assay [7] (6 min), 7; in assay [7] (8 min) it was 12.5. Also, the “coloration, GARDNER scale” value in assay [7] (10 min) stood at 17. Also, the “Colour in GARDNER degrees” value in assay [8] (After 24 hours) was 2 GARDNER degrees; in assay [8] (Time 0), 1 GARDNER degrees.

Regarding `COC(=O)C1=C(C)NC(C)=C(C(=O)OC)C1C` [Compound 29, 2,4,6-Trimethyl-3,5-dicarbomethoxy-1,4-dihydropyridine], the “coloration, GARDNER scale” value stood at 1 in assay [4] (0 min); 2 in assay [4] (3 min); 3 in assay [4] (6 min); 6 in assay [4] (9 min); 7 in assay [4] (12 min); 10 in assay [4] (15 min). Moreover, the “coloration, GARDNER scale” value in assay [4] (18 min) is 10.5; in assay [4] (21 min), “Burnt”. The “Coloration of the plates GARDNER” value in assay [2] (exposure to sun 6h) is reported as 3; in assay [2] (exposure to sun 12h), 5. Besides, the “Coloration of the plates FRENCH PHARMACOPEIA” value in assay [3] (exposure to sun 0) is “JV6”; in assay [3] (exposure to sun 6h), “JV5”; in assay [3] (exposure to sun 12h), “JV4”.

For `COC(=O)/C=C(/C)N` [Methyl-β-aminocrotonate, methyl-β-aminocrotonate, reference compound], the “coloration, GARDNER scale” value in assay [1] (0 min) is reported as 1; in assay [1] (2 min), 1; in assay [1] (4 min), 5; in assay [1] (6 min) it was 12; in assay [1] (8 min) it was 14; in assay [1] (10 min), 17. For the same molecule, the “coloration, GARDNER scale” value in assay [1] (12 min) was determined as 18.
